# Patent publication US20080199503A1, “Pharmaceutical Compositions Preparation of Peptides, Secreted by the Snake Venom Glands, Particularly of Bothrops Jararaca, Vasopeptidases Inhibitors, Evasins, Their Analogues, Derivatives and Products Associated, Thereof, for Development of Applications and Use in Chronic-Degenerative Diseases” (priority 2002, published 2008)
# Where two headings read alike, the source gives them in different places. Square brackets hold non-standard residues; d marks the D form. Peptide text beside a SMILES is read from it. pGlu = O=C1CC[C@@H](C(=O)O)N1
# Experiments:
# [1] = tested on: rostro-ventrolateral medulla of freely moving rats; details: free (not encapsulated), 25 to 50 ng; cited from earlier work
# [2] = target: N-terminal catalytic site of the Angiotensin I converting enzyme (recombinant ACE) (Homo sapiens, UniProt P12821); assay: Inhibition of the N-terminal catalytic site of recombinant ACE (fluorogenic substrate); assay type: biochemical
# Experimental: (§1) The fractions from purification were submitted to mass spectrometry analysis to conforming the Evasins molar mass after purification. • The enzyme assays for the recombinant ACE inhibition were conducted using the substrate Mca-Ala-Ser-Asp-Lys-DpaOH, at 25° C., in a 50 mM Hepes buffer (pH 6.8), 200 mM NaCl and […] ZnCl2.
# [3] = tested on: anesthetized normotensive rats (WKY) blood pressure; assay: Potentiation of the bradykinin hypotensive effect on anesthetized rat blood pressure; assay type: in vivo; details: for Bk potentiation(%): hypotension increase of a single bradykinin dose after 200 nmol of potentiator i.v., anesthetized rats; for Duration time: time to reduce the potentiating effect by 50%, 200 nmol/rat i.v., unit not given, minutes
# Experimental: The potentiating activity of the bradykinin hypotensive effect was tested in anesthetized rats. Normotensive male rats (WKY) were anesthetized using pentobarbital sodium (Hypnol® Cristália, 50 mg/kg, intraperitoneal) and placed on a controlled-temperature board for maintaining the body temperature between 36.5° C. and 37° C. A polygraph coupled to a physiological transducer was used. The blood pressure ranging values were obtained by integrating the areas limited by the baseline pressure and comparing them to the values obtained from control assays. In in vivo assays, the potentiating activity of Evasins on the hypotensive effect of bradykinin on anesthetized rat blood pressure was observed. Two parameters were determined for comparison of the potentiating effects of bradykinin on the anesthetized rat blood pressure (n=5):
# 1) Intensity of the potentiating effect of the hypotensive activity of bradykinin on the anesthetized rats blood pressure: This value was defined as the hypotension percentage (%) increase caused by a single dose of bradykinin obtained after the infusion of 200 nmol of potentiator. 2) Potentiating effect length: Time required to reduce the potentiating effect on a single dose of bradykinin by 50%.
# [4] = tested on: awake hypertensive rat blood pressure; assay: Blood pressure of awake hypertensive rat, free versus cyclodextrin-encapsulated Evasin; assay type: in vivo; details: bolus injection, 0.071 nmol/100 g of body weight, awake hypertensive rats
# Excerpt: (§2) This example describes the inclusion compound administration effect between the Evasin-5a and hydroxiprolil-α-cyclodextrina BPβCD) on the blood pressure of the hypertensive rats. One day before the assay, the animals were subjected to a surgery for cannulation of the femoral artery and vein. The rats were anesthetized with ether and placed in dorsal decubitus on a surgical board. A small skin incision was made, thus separating the musculature for locating the femoral vasculonervous bunch. […] After insertion, the cannulas were tied to the bunch using a surgical line. Next, the cannulas were directed subcutaneously with the aid of a trocater to the scapular waist where they were exteriorized and secured using a suture line.
# (§3) The blood pressure and the heart rate were recorded one day after the femoral artery and vein cannulation. The assay was conducted with non-anesthetized animals with free movement. The animals pulsed arterial pressure (PAP), the mean arterial pressure (MAP) and heart rate (HR) were monitored by a computer, using a data acquisition system (BIOPAC). The data were collected during all the experiments.
# Before the drug administration, the rats PBP, MBP and HR were monitored during 60 minutes. After the bolus injection of Evasin in a total volume of 0.2 mL (NaCl 0.9% solution), the resulting hypotensive effect and the effect length were monitored. […]
# [5] = tested on: SHR and TGR(mREN2)L27 hypertensive rats blood pressure; assay: Infusion of Evasin 5a in awake hypertensive rats of different strain; assay type: in vivo, rat; details: for decrease of the MAP: infusion 900 μg/100 g corporal weight/hour
# Excerpt: as §2, with “One” for “This example describes the inclusion compound administration effect between the Evasin-5a and hydroxiprolil-α-cyclodextrina BPβCD) on the blood pressure of the hypertensive rats. One”
# as §3
# Before the drug administration, the rats PBP, MBP and HR were monitored during 60 minutes. During and after the infusion of the Evasin 5a, 900 μg/100 g corporal weight/hour in NaCl solution 0.9% (n=6), the cardiovascular parameters were registered. The administration of the evasin-5a in both strains produced the same decreased of the MAP 28±2.7 mmHg and 34±0.9 mmHg in the SHR and TGR (mREN2) L27 respectively. However, it was observed that the relevant difference in time duration effect after the infusion interruption was over 6 hours in the SHR and only 1 hour in the TGRs. These differences indicate important variations of the biochemical mechanisms of the Evasins 5a action with different degree for the renin angiotensin system activation.
# [6] = tested on: non anesthetized hypertensive rat blood pressure; assay: Blood pressure of non anesthetized hypertensive rat, i.v. bolus of Evasin; assay type: in vivo; details: 70 nmol/100 g of body weight, non-anesthetized hypertensive rats
# Excerpt: as §2, with “One day” for “This example describes the inclusion compound administration effect between the Evasin-5a and hydroxiprolil-α-cyclodextrina BPβCD) on the blood pressure of the hypertensive rats. One day”, “suture line. The arterial cannula was used for recording the cardiovascular parameters and the venous cannula for administering the drugs.” for “suture line.”
# as §3, with “The rats” for “The animals”
# Before the drug administration, the rats PBP, MBP and HR were monitored. After the bolus injection of Evasin in a total volume of 0.2 mL (NaCl 0.9% solution), the resulting hypotensive effect and the effect length were monitored. In this assay, standard doses of each peptide (70 nmol/100 g of body weight) were tested (n=4). […] Evasin-5a and the Evasin-7a produced a maximum MBP reduction of −19.17±4.36 mmHg and 13.00±2.78 mmHg respectively.
# [7] = target: neutral endopeptidase (recombinant NEP) (Homo sapiens, UniProt P08473); assay: Fluorometric assay of recombinant NEP inhibition; assay type: biochemical
# Experimental: The fluorometric assays for the recombinant NEP inhibition were conducted using the substrate Abz-RL-EDDnp in a 50 mM Tris-HCl buffer, pH 7.5, at 37° C. […] The Evasins were pre-incubated with the enzyme before the substrate addition.
# The inhibition constants (Ki) values were determined by means of the ratio of the apparent inhibition constant (Ki(app)) and the substrate Km (Salvesen and Nagase, 1990). In: Proteolytic enzymes a practical aproach, Beynon and Bond Eds Oxford University Press, England, 87-88).
# [8] = target: C-terminal catalytic site of the Angiotensin I converting enzyme (recombinant ACE) (Homo sapiens, UniProt P12821); assay: Inhibition of the C-terminal catalytic site of recombinant ACE (fluorogenic substrate); assay type: biochemical
# Experimental: as §1
# [9] = cited from earlier work
# [10] = in vivo; cited from earlier work
# [11] = recombinant ACE, substrate Mca-Ala-Ser-Asp-Lys-DpaOH, 25° C., pH 6.8, read-out: ECA - Ki, N-terminal
# [12] = recombinant NEP, substrate Abz-RL-EDDnp, pH 7.5, 37° C., read-out: NEP - Ki
# [13] = recombinant ACE, substrate Mca-Ala-Ser-Asp-Lys-DpaOH, 25° C., pH 6.8, read-out: ECA - Ki, C-terminal
# Sequence of C-terminal catalytic site of the Angiotensin I converting enzyme (recombinant ACE) (P12821 643-1222 limits assumed, species assumed): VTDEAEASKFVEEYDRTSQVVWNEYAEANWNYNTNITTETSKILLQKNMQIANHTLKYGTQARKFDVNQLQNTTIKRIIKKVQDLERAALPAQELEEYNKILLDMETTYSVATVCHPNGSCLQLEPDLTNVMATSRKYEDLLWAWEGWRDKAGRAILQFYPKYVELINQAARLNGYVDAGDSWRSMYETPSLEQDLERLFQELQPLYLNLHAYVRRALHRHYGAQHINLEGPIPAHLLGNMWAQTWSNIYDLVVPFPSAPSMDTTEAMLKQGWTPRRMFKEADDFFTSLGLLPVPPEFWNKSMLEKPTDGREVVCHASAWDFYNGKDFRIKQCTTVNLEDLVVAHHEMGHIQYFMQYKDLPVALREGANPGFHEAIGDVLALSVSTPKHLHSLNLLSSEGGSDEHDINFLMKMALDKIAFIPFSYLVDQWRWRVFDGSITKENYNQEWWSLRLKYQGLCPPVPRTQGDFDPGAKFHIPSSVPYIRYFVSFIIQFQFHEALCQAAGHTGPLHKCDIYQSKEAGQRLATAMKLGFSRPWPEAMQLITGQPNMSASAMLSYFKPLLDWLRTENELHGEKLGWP
# Sequence of neutral endopeptidase (recombinant NEP) (P08473 whole entry, species assumed): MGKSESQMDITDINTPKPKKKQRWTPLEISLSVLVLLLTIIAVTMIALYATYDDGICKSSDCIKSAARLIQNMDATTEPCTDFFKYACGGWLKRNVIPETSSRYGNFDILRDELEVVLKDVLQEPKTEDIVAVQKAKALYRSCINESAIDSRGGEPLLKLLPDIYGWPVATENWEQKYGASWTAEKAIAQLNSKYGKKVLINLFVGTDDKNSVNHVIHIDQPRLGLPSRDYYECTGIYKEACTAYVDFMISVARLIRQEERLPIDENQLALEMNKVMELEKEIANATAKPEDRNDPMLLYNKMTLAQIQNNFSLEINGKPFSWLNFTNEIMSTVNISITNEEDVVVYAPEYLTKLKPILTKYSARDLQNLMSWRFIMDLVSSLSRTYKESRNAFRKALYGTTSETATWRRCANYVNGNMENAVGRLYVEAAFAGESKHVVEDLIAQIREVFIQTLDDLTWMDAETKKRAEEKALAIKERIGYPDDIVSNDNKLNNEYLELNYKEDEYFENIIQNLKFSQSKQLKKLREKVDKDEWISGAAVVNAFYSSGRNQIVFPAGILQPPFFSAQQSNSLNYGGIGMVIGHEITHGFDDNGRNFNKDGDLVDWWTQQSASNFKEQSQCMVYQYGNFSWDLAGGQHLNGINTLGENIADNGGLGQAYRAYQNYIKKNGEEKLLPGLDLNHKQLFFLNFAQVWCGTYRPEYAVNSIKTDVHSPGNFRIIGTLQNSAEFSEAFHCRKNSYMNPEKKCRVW
# Sequence of N-terminal catalytic site of the Angiotensin I converting enzyme (recombinant ACE) (P12821 40-624 limits assumed, species assumed): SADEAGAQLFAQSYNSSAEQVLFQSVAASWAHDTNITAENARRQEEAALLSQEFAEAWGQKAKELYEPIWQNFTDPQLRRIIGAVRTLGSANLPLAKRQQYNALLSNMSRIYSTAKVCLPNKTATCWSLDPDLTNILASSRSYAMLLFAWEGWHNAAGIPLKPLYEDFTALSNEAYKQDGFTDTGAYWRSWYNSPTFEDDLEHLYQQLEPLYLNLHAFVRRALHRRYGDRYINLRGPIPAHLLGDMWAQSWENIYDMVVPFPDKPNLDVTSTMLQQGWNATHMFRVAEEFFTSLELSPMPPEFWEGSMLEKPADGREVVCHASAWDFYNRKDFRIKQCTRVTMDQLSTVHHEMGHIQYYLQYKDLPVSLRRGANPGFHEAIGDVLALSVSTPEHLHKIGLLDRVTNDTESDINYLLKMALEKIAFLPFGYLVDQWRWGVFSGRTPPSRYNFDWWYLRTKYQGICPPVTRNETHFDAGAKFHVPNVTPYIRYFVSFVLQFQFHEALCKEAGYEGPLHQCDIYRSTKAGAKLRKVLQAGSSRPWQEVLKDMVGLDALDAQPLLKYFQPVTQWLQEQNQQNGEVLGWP
Compound,"Ki [2, 11] [µM]",Bk potentiation(%) [3] [%],Duration time [3],hypotensive effect length [6],reduction in the mean blood pressure (maximum) [6] [mmHg],"Ki [7, 12] [µM]","Ki [8, 13] [µM]",further results
"Ang-(1-7) (DRVYIHP; Angiotensin 1-7; UniProt P01019 25-31, looked up) [free Ang-(1-7), angiotensinergic peptide, not encapsulated]",–,–,–,–,–,–,–,duration of the increase [1]: approximately 10 min; increase of blood pressure [1]: 15 mmHg
"C[C@H](NC(=O)[C@H](Cc1c[nH]c2ccccc12)NC(=O)[C@H](CCCCN)NC(=O)[C@@H]1CCC(=O)N1)C(=O)N1CCC[C@H]1C(=O)O [EVASIN-5a, <EKWAP] ([pGlu]KWAP-OH; C-terminus assumed)",0.399,102.5,10,37 min,−19.17±4.36,550,1.28,"effect length [4]: 38 min; maximum hypotensive effect, reduction of MAP [4]: 23±4.2 mmHg; time duration of effect after the infusion interruption ([5]; SHR): over 6 hours; decrease of the MAP ([5]; SHR): 28±2.7 mmHg; decrease of the MAP ([5]; TGR (mREN2) L27): 34±0.9 mmHg; time duration of effect after the infusion interruption ([5]; TGRs): 1 h"
"CC[C@H](C)[C@H](NC(=O)[C@H](CCC(N)=O)NC(=O)[C@@H]1CCCN1C(=O)[C@H](CCCNC(=N)N)NC(=O)[C@@H]1CCCN1C(=O)[C@H](Cc1c[nH]c2ccccc12)NC(=O)[C@@H]1CCC(=O)N1)C(=O)N1CCC[C@H]1C(=O)N1CCC[C@H]1C(=O)O [EVASIN-9a, <EWPRPQIPP]",0.1,–,–,84 min,−27.0±1.50,86,0.001,"antihypertensive activity, intravenously ([9]; administered intravenously): has an antihypertensive activity; antihypertensive activity, orally ([9]; given orally): inactive"
"CC[C@H](C)[C@H](NC(=O)[C@@H]1CCCN1C(=O)CNC(=O)[C@H](CC(=O)O)NC(=O)[C@@H]1CCC(=O)N1)C(=O)N1CCC[C@H]1C(=O)N1CCC[C@H]1C(=O)O [EVASIN-7a, <EDGPIPP] ([pGlu]DGPIPP-OH; C-terminus assumed)",70,41.8,120,more than 100 minutes,13.00±2.78,492,40,–
C[C@H](CS)C(=O)N1CCC[C@H]1C(=O)O [Captopril],–,–,–,–,–,–,–,drug absorption time when administered alone [10]: 1 h
"CC[C@H](C)[C@H](NC(=O)[C@H](CCC(N)=O)NC(=O)[C@@H]1CCCN1C(=O)[C@H](Cc1c[nH]cn1)NC(=O)[C@@H]1CCCN1C(=O)[C@H](Cc1c[nH]c2ccccc12)NC(=O)[C@H](CC(N)=O)NC(=O)[C@@H]1CCC(=O)N1)C(=O)N1CCC[C@H]1C(=O)N1CCC[C@H]1C(=O)O [EVASIN-10c, <ENWPHPQIPP] ([pGlu]NWPHPQIPP-OH; C-terminus assumed)",–,195,95,94 min,−29.5±9.50,–,–,Ki [2]: 0.2 µM; Ki [7]: 253 µM; Ki [8]: 0.0005 µM; selectivity for the C-terminal site ([8]; C-terminal versus N-terminal site of ACE): 400 times
